The record followed here is PMC4336331, “Novel Receptor-Derived Cyclopeptides to Treat Heart Failure Caused by Anti-β1-Adrenoceptor Antibodies in a Human-Analogous Rat Model” (PLoS ONE, 2015).

A short description of data set [1]: Half-life of β1EC2-peptides in rat whole blood ex vivo. The following applies: for Half-life in whole blood, in words: ex vivo incubation experiments with whole blood (Fig. 1G); for half-life: rat, whole blood.
For data set [2], the system named is IL1-β, TGF-β1 transcripts. The data set is described as follows: qRT-PCR of cardiac profibrotic markers, therapy-study. Conditions: qRT-PCR of apical cardiac tissues, normalised to controls (Fig. 3D). The data set is classed as in vivo, Lewis/CrlBR rats. The method, then:
Total RNA was isolated from frozen myocardium by RNeasy mini Kit (Qiagen, Hilden, Germany). Reverse transcription of total RNA isolated from frozen myocardium was performed in 96-well plates utilising a high capacity RNA-to-cDNA master mix (Applied Biosystems, Foster City, CA). PCR reactions were conducted in the presence of the fluorescent dye Sybr-Green (Cambrex BioScience, East Rutherford, NY) and the reference-dye 6-carboxy-X-rhodamine (ROX) using an ABI PRISM sequence detection system 7700 (Applied Biosystems). All amplification products were controlled for specificity by running a melting curve analysis; results were calculated using the 2^-ΔΔCT method. The relative expression levels were derived from a standard curve and normalised to GAPDH as an endogenous control. Quantitative real-time PCR (qRT-PCR) analyses are presented as fold change compared to untreated (0.9% NaCl-injected) control hearts. […]
Fig 3 Histology of rat hearts (therapy-study). […] (B) Quantification of fibrotic scars in midventricular 2μm-sections (mvhs, mid-ventricular heart-section). […] For all parameters shown, differences between the treatment-groups were assessed by […] one way ANOVA and Dunnett`s post-hoc test; *p<0.05; **p<0.001.

Data set [3] has as its system anti-β1EC2-induced heart failure (β1EC2/GST-FP-immunised rats). As to the kind of experiment: Echocardiography, catheterisation and histomorphology, prevention-study. The data set is classed as in vivo, Lewis/CrlBR rats. The following applies: cardiac catheterisation, histomorphology. The method, then: In brief, n = 76 two months old Lewis/CrlBR rats were either s.c. immunised with 50 μg β1EC2/GST-FP, or n = 38 rats were control-injected with 0.9% NaCl (t = 0). To maintain high anti-β1EC2-titers, all immunised rats were boosted with β1EC2/GST-FP (or 0.9% NaCl) every month over 20 months as previously described. Application of the different linear or cyclic β1-AR peptides (corresponding to the primary AA-sequence of either the first (β1EC1) or the 2nd extra-cellular β1-AR loop (β1EC2)) or the β1-receptor blocker bisoprolol was initiated either 6 weeks after the 1st immunisation (i.e. 15 days after the 1st boost, prevention-study), or 8.5 months after the 1st immunisation (therapy-study).
In brief, the rats were lightly anaestetised (30 mg/kg ketamine-HCl and 5 mg/kg xylazine i.p.), shaved (chest), and placed supine on a special table. M-mode tracings were recorded at baseline (before immunisation), and subsequently every four months in the parasternal long and short axis views according to the guidelines of the American Society for Echocardiography. Pulsed-wave Doppler spectra were recorded from the apical five-chamber view and the velocity-time integral (VTI) of the transaortic flow served to calculate cardiac output (CO [ml/min] = Aortic VTI x (π [LV-outflow tract diameter/2]^2) x bpm).

The test system is the same in data set [4]. As to the kind of experiment: Heart histology (fibrotic scars, TUNEL, mast cells), therapy-study. The data set is classed as in vivo, Lewis/CrlBR rats. The following applies: for number of myocardial fibrotic scars, in words: midventricular 2μm-sections (Fig. 3A and B); for TUNEL-positive apopotic cells, in words: midventricular 2μm-sections (Fig. 3C); for increase in cardiac mast cells, in words: toluidine blue, mono- or co-treatment (Fig. 3E). The text has this:
Fig 3 Histology of rat hearts (therapy-study). (A) Representative H&E-stained 2μm cross-sections of hearts (from the left to the right) from a control rat, an immunised untreated rat, a bisoprolol- and a β1EC2-CP mono-treated rat, and a β1EC2-CP/bisoprolol co-treated rat. (B) Quantification of fibrotic scars in midventricular 2μm-sections (mvhs, mid-ventricular heart-section). Columns ± error bars represent the mean number of fibrotic scars ±SEM per 3 heart sections in the indicated groups. (C) TUNEL-assay with 2μm-mvhs. Columns ± error bars represent mean numbers ±SEM of apoptotic cells (kind of cells not specified) /3 mvhs. (D) qRT-PCR of apical cardiac tissues. Columns ± error bars represent the expression of the indicated pro-fibrotic markers ±SEM in the indicated treatment-groups normalised to controls. (E) Mast cells in 2μm paraffin-mvhs from the indicated treatment-groups; columns ± error bars represent the mean numbers ±SEM of mast cells/mm^2 cardiac tissue. For all parameters shown, differences between the treatment-groups were assessed by […] one way ANOVA and Dunnett`s post-hoc test; *p<0.05; **p<0.001.

Peptide text beside a SMILES is read from it.

With `CC(C)[C@@H]1NC(=O)[C@H](Cc2ccccc2)NC(=O)[C@H](CC(=O)O)NC(=O)[C@H](CS)NC(=O)[C@H](CS)NC(=O)[C@H](CCCCN)NC(=O)[C@@H]2CCCN2C(=O)[C@H](CC(=O)O)NC(=O)[C@H](CC(N)=O)NC(=O)[C@H](Cc2ccc(O)cc2)NC(=O)[C@H](CS)NC(=O)[C@H](CCCNC(=N)N)NC(=O)[C@H](CCCNC(=N)N)NC(=O)[C@H](C)NC(=O)[C@H](CCC(=O)O)NC(=O)[C@H](CC(=O)O)NC(=O)[C@H](CO)NC(=O)[C@H](CCC(=O)O)NC(=O)[C@H](C)NC(=O)[C@H](CCCNC(=N)N)NC(=O)[C@H](C)NC(=O)[C@H](CCC(N)=O)NC(=O)CNC(=O)[C@H](CCCNC(=N)N)NC(=O)[C@H](CC(N)=O)NC(=O)[C@H]([C@@H](C)O)NC1=O` [β1EC2-CP] (cyclo(AESDEARRCYNDPKCCDFVTNRGQAR)), in data set [1], the “Half-life in whole blood, in words” value is “days” and the half-life is 20.2 days. Moreover, the “reduction of the increases in cardiac transcripts of profibrotic markers (IL1-β, TGF-β1)” value in data set [2] is reported as ~50%. Besides, the “development of cardiomyopathy and heart failure, in words” value in data set [3] is “able to prevent development of cardiomyopathy and heart failure”. Further, in data set [4], the “number of myocardial fibrotic scars, in words” value is recorded as “returned to normal levels”; the “TUNEL-positive apopotic cells, in words” value is recorded as “returned to normal levels”; the “increase in cardiac mast cells, in words” value is listed as “reversed to control levels”.
For `CC(C)NCC(O)COc1ccc(COCCOC(C)C)cc1` (centres unmarked) [bisoprolol, reference compound], the “reduction of the increases in cardiac transcripts of profibrotic markers (IL1-β, TGF-β1)” value in data set [2] was ~50%. The “development of cardiomyopathy and heart failure, in words” value in data set [3] was “able to prevent development of cardiomyopathy and heart failure”. In data set [4], the “number of myocardial fibrotic scars, in words” value is “not seen”; the “TUNEL-positive apopotic cells, in words” value is recorded as “not seen”; the “increase in cardiac mast cells, in words” value is “reversed to control levels”.
In the case of `CC(C)[C@H](NC(=O)[C@H](Cc1ccccc1)NC(=O)[C@H](CC(=O)O)NC(=O)[C@H](CS)NC(=O)[C@H](CS)NC(=O)[C@H](CCCCN)NC(=O)[C@@H]1CCCN1C(=O)[C@H](CC(=O)O)NC(=O)[C@H](CC(N)=O)NC(=O)[C@H](Cc1ccc(O)cc1)NC(=O)[C@H](CS)NC(=O)[C@H](CCCNC(=N)N)NC(=O)[C@H](CCCNC(=N)N)NC(=O)[C@H](C)NC(=O)[C@H](CCC(=O)O)NC(=O)[C@H](CC(=O)O)NC(=O)[C@H](CO)NC(=O)[C@H](CCC(=O)O)NC(=O)[C@H](C)NC(=O)[C@H](CCCNC(=N)N)NC(=O)[C@H](C)N)C(=O)N[C@H](C(=O)N[C@@H](CC(N)=O)C(=O)N[C@@H](CCCNC(=N)N)C(=O)NCC(N)=O)[C@@H](C)O` [β1EC2-Lin] (H-ARAESDEARRCYNDPKCCDFVTNRG-NH2; N-terminus and C-terminus assumed), in data set [1], the “Half-life in whole blood, in words” value was “hours” and the half-life is 0.167 days.
